Laboratory results reported in patent US3969401A, “D-aminophenylacetic acid compounds and derivatives” (William H. Rorer, Inc., priority 1973, dated 1976).
Counter-ions that a name gives are not always drawn.

What was measured:
polyarthritis (adjuvant) = test: Polyarthritis in rats (adjuvant); format: in vivo
Protocol: Twelve rats per dose group were treated (b.i.d.) starting the day before injection of adjuvant. Paw volumes were measured for both hind paws on several days during and following drug treatment. Drug was given for a period of 15 days. The paw volume was compared to an untreated control group to determine volume increase. Drug action was calculated as the percent decrease in paw volume (inflammation) as compared to an adjuvant-treated control. Gross signs of inflammation were scored on a weekly basis and drug action calculated as a decrese in total score. Body weights were recorded at intervals.

Acute Toxicity = settings: mouse, in vivo; male mice, oral single dose, observed nine days
Protocol: Food and water were delivered ad lib. The drug to be tested was prepared as a water suspension using one drop of "Tween 80" per 10 ml. and administered orally as a single dose (10 ml./kg.). The control group received the vehicle only (10 ml./kg.). The lethal dose (LD50) which is the dose of drug required to kill 50 percent of the animals tested, was determined by the Litchfield and Wilcoxon method.

carrageenan paw edema = test: Carrageenan Paw Edema (CPE); format: in vivo, male rats
Protocol: Of the substances used to induce local irritation, carrageenan was selected since most known nonsteroidal anti-inflammatory agents inhibit this inflammation.
Ten male rats per dose group (120-150 g.) were given one-half of the test material orally. Thirty minutes later, the remainder of the dose was given and 0.2 ml. of a 1% carrageenan solution was injected subdermally into the plantar surface of the hind paw. Each paw is marked as a consistent anatomical site, then immersed in a mercury bath to that point. The mercury bath is connected to a pressure transducer and the volume of displacement is read directly on a recorder. Three hours after drug administration, the hind paw volume is measured again. The increased volume is an index of edema. Treated groups are compared to a placebo-treated group to calculate the percent inhibition of edema.
(§1) The test results are given in the following Table wherein the following legends were employed: PQW phenylquinone writhing RSA Randall-Selitto Analgesia CPE Carrageenan Paw Edema UVS Ultra-Violet Erythema FPG Filter Paper Granuloma AP Anti-Pyresis P.T. Pain Threshold No. P/T Number Positive/Total % ↑ Percentage Increase % ↓ Percentage Inhibition

[1] = tested on: yeast-inflamed hind paw (pain threshold); test: Randall-Selitto Analgesia Test (RSA); format: in vivo, rat
Protocol: In accordance with the Randall-Selitto test for measuring the pain threshold, the pressure needed on a metal plunger to give a "pain reponse" in a rat when the plunger is placed in the yeast-inflamed hind paw of a rat is measured. Following measurement of control pain threshold, yeast was injected into the paw and the test compound was given orally. The pain threshold was measured at hourly intervals and compared to a placebo-treated control group.
as §1

Brewer's yeast fever = test: Anti-Pyretic Assay (AP); format: in vivo, rats; settings: positive = rectal temperature decreases by 1° C. or more
Protocol: Brewer's yeast was injected subcutaneously in rats and rectal temperatures were obtained at the end of five hours. Those rats (10 per group) having a significant fever were given test compounds and rectal temperatures were measured at hourly intervals for 2 to 3 hours. (A positive response occurs when rectal temperature decreases by 1° C. or more).
as §1

ultra-violet erythema = test: Ultra-violet Erythema in Guinea Pigs (UVE); format: in vivo, guinea pig
Excerpt: Erythema associated with inflammation was used in the assay. Restricted areas of a guinea pig were exposed to a controlled ultra-violet light and after two hours the exposed areas were graded for the extent of erythema.
as §1

phenylquinone writhing = test: Phenylquinone analgesia (phenylquinone writhing, PQW); format: in vivo, mice
Protocol: Mice were pre-treated orally with test compound and then given 1.25 mg./kg. of phenylquinone i.p to produce a series of "writhes" (severe intestinal contractions). The number of writhes was recorded. The percent decrease was calculated from the incidence of writhes in a placebo-treated control group.
as §1

filter paper granuloma = test: Filter Paper Granuloma (FPG); format: in vivo, rat
Protocol: This assay was used to evaluate anti-inflammatory agents and to determine the lowest dose which produces significant inhibition of granuloma growth. This assay has the advantage of being semi-acute (4 to 7 days). The usual end point involves obtaining the wet weight as well as the dry weight of the granuloma.
Small discs of filter paper saturated with carrageenan were placed subcutaneously in each rat on the first day of the study. Test compound was administered orally on a b.i.d. basis on Day 1 to Day 4. On Day 5, a single dose was given in the morning and the animals were sacrificed in the afternoon. Both filter paper discs were removed and trimmed of extraneous tissue and then weighed. After drying in an oven over the weekend, the dry weight was obtained. Activity was determined by the difference in granuloma weight between a placebo-treated control group and the drug-treated groups.
as §1

gastrointestinal tract = test: Gastrointestinal tolerance; format: in vivo; settings: compared with the free acids

## O=C(O)C(SSC(C(=O)O)c1ccc(C2CCCCC2)c(Cl)c1)c1ccc(C2CCCCC2)c(Cl)c1 (stereo not drawn) [Compound 531A, Diethylammonium salt of α,α'-di-(m-chloro-p-cyclohexylphenyl)-α',α'-dithiodiacetic acid]
Polyarthritis (adjuvant); 100 mg./kg./day P.O
  Polyarthritis % av. inhibition, injected hind-paw: 34.0%
  Polyarthritis % av. inhibition, noninjected hind-paw: 44.7%
  Polyarthritis % av. inhibition, secondary lesions: 30.3%
Polyarthritis (adjuvant); 200 mg./kg./day P.O
  Polyarthritis % av. inhibition, injected hind-paw: 35.6%
  Polyarthritis % av. inhibition, noninjected hind-paw: 43.8%
  Polyarthritis % av. inhibition, secondary lesions: 43.6%
Acute Toxicity
  LD50 at 216 h: > 2000 mg/kg
Carrageenan paw edema; 100 mg/kg P.O
  CPE % inhibition of edema: 19.9%
[1]; 50 mg/kg P.O
  RSA % increase of pain threshold (PT): 32%
[1]; 100 mg/kg P.O
  RSA % increase of pain threshold (PT): 28%
[1]; 200 mg/kg P.O
  RSA % increase of pain threshold (PT): 51%
Brewer's yeast fever; 50 mg/kg P.O
  AP No. P/T (Number Positive/Total): 1/8
Brewer's yeast fever; 100 mg/kg P.O
  AP No. P/T (Number Positive/Total): 1/8
Brewer's yeast fever; 200 mg/kg P.O
  AP No. P/T (Number Positive/Total): 6/8

## O=C(O)C(S)c1ccc(C2CCCCC2)c(Cl)c1 (stereo not drawn) [Compound 528A, Diethylammonium salt of m-chloro-p-cyclohexyl-α-mercaptophenylacetic acid]
Polyarthritis (adjuvant); 100 mg./kg./day P.O
  Polyarthritis % av. inhibition, injected hind-paw: 52.8%
  Polyarthritis % av. inhibition, noninjected hind-paw: 35.6%
  Polyarthritis % av. inhibition, secondary lesions: 34.0%
Carrageenan paw edema; 100 mg/kg P.O
  CPE % inhibition of edema: 52.0%
ultra-violet erythema; 5 mg/kg P.O
  UVE No. P/T (Number Positive/Total): 5/8
ultra-violet erythema; 10 mg/kg P.O
  UVE No. P/T (Number Positive/Total): 5/8
ultra-violet erythema; 25 mg/kg P.O
  UVE No. P/T (Number Positive/Total): 7/8
ultra-violet erythema; Cavia porcellus, po, P.O
  ED50: 10.5 mg/kg

## O=C(O)C(Cl)c1ccc(C2CCCCC2)c(Cl)c1 (stereo not drawn) [Compound 539A, Sodium salt of α,m-dichloro-p-cyclohexylphenylacetic acid]
Polyarthritis (adjuvant); 10 mg./kg./day P.O
  Polyarthritis % av. inhibition, injected hind-paw: 41.8%
  Polyarthritis % av. inhibition, noninjected hind-paw: 14.1%
  Polyarthritis % av. inhibition, secondary lesions: 28.2%
Polyarthritis (adjuvant); 25 mg./kg./day P.O
  Polyarthritis % av. inhibition, injected hind-paw: 50.2%
  Polyarthritis % av. inhibition, noninjected hind-paw: 12.1%
  Polyarthritis % av. inhibition, secondary lesions: 44.0%
Polyarthritis (adjuvant); 50 mg./kg./day P.O
  Polyarthritis % av. inhibition, injected hind-paw: 45%
  Polyarthritis % av. inhibition, noninjected hind-paw: 59.6%
  Polyarthritis % av. inhibition, secondary lesions: 39.3%
Polyarthritis (adjuvant); 100 mg./kg./day P.O
  Polyarthritis % av. inhibition, injected hind-paw: 59.1%
  Polyarthritis % av. inhibition, noninjected hind-paw: 51.2%
  Polyarthritis % av. inhibition, secondary lesions: 30.1%
Phenylquinone writhing; 2 mg/kg P.O
  PQW % inhibition (decrease in writhes): 13.1%
Phenylquinone writhing; 5 mg/kg P.O
  PQW % inhibition (decrease in writhes): 13.1%
Phenylquinone writhing; 10 mg/kg P.O
  PQW % inhibition (decrease in writhes): 54.6%
Phenylquinone writhing; 20 mg/kg P.O
  PQW % inhibition (decrease in writhes): 84.5%
Phenylquinone writhing; 30 mg/kg P.O
  PQW % inhibition (decrease in writhes): 96.6%
Phenylquinone writhing; Mus musculus, po, P.O
  ED50: 9.6 mg/kg
Acute Toxicity
  LD50 at 216 h: 430 mg/kg
Carrageenan paw edema; 1 mg/kg P.O
  CPE % inhibition of edema: 10%
Carrageenan paw edema; 2 mg/kg P.O
  CPE % inhibition of edema: 30.3%
Carrageenan paw edema; 3.125 mg/kg P.O
  CPE % inhibition of edema: 34.6%
Carrageenan paw edema; 5 mg/kg P.O
  CPE % inhibition of edema: 29.5%
Carrageenan paw edema; 6.25 mg/kg P.O
  CPE % inhibition of edema: 42.0%
Carrageenan paw edema; 12.5 mg/kg P.O
  CPE % inhibition of edema: 47.2%
Carrageenan paw edema; 25 mg/kg P.O
  CPE % inhibition of edema: 43.0%
Carrageenan paw edema; 50 mg/kg P.O
  CPE % inhibition of edema: 52.0%
Carrageenan paw edema; 100 mg/kg P.O
  CPE % inhibition of edema: 64.0%
Filter paper granuloma; 25 mg./kg./day P.O
  EPG (Filter Paper Granuloma) % inhibition, dry weight: 41.1%
  EPG (Filter Paper Granuloma) % inhibition, wet weight: 31.7%
Filter paper granuloma; 50 mg./kg./day P.O
  EPG (Filter Paper Granuloma) % inhibition, dry weight: 38.8%
  EPG (Filter Paper Granuloma) % inhibition, wet weight: 43.9%
[1]; 25 mg/kg P.O
  RSA % increase of pain threshold (PT): 41.8%
[1]; 50 mg/kg P.O
  RSA % increase of pain threshold (PT): 49.3%
[1]; 100 mg/kg P.O
  RSA % increase of pain threshold (PT): 77.6%
Brewer's yeast fever; 6.25 mg/kg P.O
  AP No. P/T (Number Positive/Total): 0/8
Brewer's yeast fever; 12.5 mg/kg P.O
  AP No. P/T (Number Positive/Total): 3/8
Brewer's yeast fever; 25 mg/kg P.O
  AP No. P/T (Number Positive/Total): 2/8
Brewer's yeast fever; 50 mg/kg P.O
  AP No. P/T (Number Positive/Total): 6/8
Brewer's yeast fever; 100 mg/kg P.O
  AP No. P/T (Number Positive/Total): 8/8

## O=C1NC(=O)C(c2ccc(C3CCCCC3)c(Cl)c2)S1 (centres unmarked) [Compound 529, 5-(m-Chloro-p-cyclohexylphenyl)-2,4-dioxothiazolidine]
Polyarthritis (adjuvant); 100 mg./kg./day P.O
  Polyarthritis % av. inhibition, injected hind-paw: 42.0%
  Polyarthritis % av. inhibition, noninjected hind-paw: 17.3%
  Polyarthritis % av. inhibition, secondary lesions: 21.0%
Carrageenan paw edema; 50 mg/kg P.O
  CPE % inhibition of edema: 17.4%
Carrageenan paw edema; 100 mg/kg P.O
  CPE % inhibition of edema: 30%
Brewer's yeast fever; 100 mg/kg P.O
  AP No. P/T (Number Positive/Total): 1/8

## N=C1NC(=O)C(c2ccc(C3CCCCC3)c(Cl)c2)S1 (centres unmarked) [Compound 530, 5-(m-Chloro-p-cyclohexylphenyl)-2-imino-4-oxothiazolidine]
Polyarthritis (adjuvant); 100 mg./kg./day P.O
  Polyarthritis % av. inhibition, injected hind-paw: 38.1%
  Polyarthritis % av. inhibition, noninjected hind-paw: 44.7%
  Polyarthritis % av. inhibition, secondary lesions: 17.3%
[1]; 100 mg/kg P.O
  RSA % increase of pain threshold (PT): 51.4%

## CCOC(=O)C(Cl)c1ccc(C2CCCCC2)c(Cl)c1 (stereo not drawn) [Compound 541, α,m-Dichloro-p-cyclohexylphenylacetic acid ethyl ester]
Carrageenan paw edema; 6.25 mg/kg P.O
  CPE % inhibition of edema: 51.3%
Carrageenan paw edema; 12.5 mg/kg P.O
  CPE % inhibition of edema: 38.8%
Carrageenan paw edema; 25 mg/kg P.O
  CPE % inhibition of edema: 49.8%
Carrageenan paw edema; 50 mg/kg P.O
  CPE % inhibition of edema: 52.2%
Gastrointestinal tract
  gastrointestinal tolerability: better tolerated and not as irritating on the gastrointestinal tract as the free acids
